Reference: patent publication US20240307382A1, “MODULATORS OF THE INTEGRATED STRESS PATHWAY” (Calico Life Sciences LLC, priority 2017, published 2024)
pEC50: −log10 of the molar value.

System: HEK293T cells carrying the ATF4 luciferase reporter
Test: ATF4-Luc assay (ATF4 luciferase reporter, tunicamycin-treated cells)
Assay type: cell-based
Conditions: Homo sapiens, HEK-293T, 1 μg/mL tunicamycin, 7 hours
Method: In order to test exemplary compounds of the invention in a cellular context, a stable VWMD cell line was first constructed. The ATF4 reporter was prepared by fusing the human full-length ATF4 5′-UTR (NCBI Accession No. BC022088.2) in front of the firefly luciferase (FLuc) coding sequence lacking the initiator methionine as described in Sidrauski et al (eLife 2013). The construct was used to produce recombinant retroviruses using standard methods and the resulting viral supermatant was used to transduce ITEK293T cells, which were then subsequently selected with puromycin to generate a stable cell line.
HTEK293T cells carrying the ATF4 luciferase reporter were plated on polylysine coated 384-well plates (Greiner Bio-one) at 30,000 cells per well. Cells were treated the next day with 1 μg/mL tunicamycin and 200 nM of a compound of Formula (I) for 7 hours. Luminescence was measured using One Glo (Promega) as specified by the manufacturer. Cells were maintained in DMEM with L-glutamine supplemented with 10% heat-inactivated FBS (Gibco) and Antibiotic-Antimycotic solution (Gibco).
Table 2 below summarizes the EC50 data obtained using the ATF4-Luc assay for exemplary compounds of the invention.

Compound	pEC50
O=C(COc1ccc(Cl)c(Cl)c1)NC12CCC(NC(=O)c3cc(CO)ccn3)(CC1)C[C@@H]2O [Compound 1003, N-{(3S)-4-[2-(3,4-dichlorophenoxy)acetamido]-3-hydroxybicyclo[2.2.2]octan-1-yl}-4-(hydroxymethyl)pyridine-2-carboxamide]	> 7.30
O=C(COc1ccc(OC(F)(F)F)cc1)NC12CCC(NC(=O)c3cccnc3CO)(CC1)C[C@@H]2O [Compound 1087, 2-(hydroxymethyl)-N-[(3S)-3-hydroxy-4-{2-[4-(trifluoromethoxy)phenoxy]acetamido}bicyclo[2.2.2]octan-1-yl]pyridine-3-carboxamide]	< 5.70
NCc1ccnc(C(=O)NC23CCC(NC(=O)COc4ccc(Cl)c(F)c4)(CC2)CC3)c1 [Compound 975, 4-(aminomethyl)-N-{4-[2-(4-chloro-3-fluorophenoxy)acetamido]bicyclo[2.2.2]octan-1-yl}pyridine-2-carboxamide]	> 7.30
O=C(COc1ccc(Cl)c(Cl)c1)NC12CCC(NC(=O)c3ccc(C(F)(F)F)o3)(CC1)C[C@@H]2O [Compound 1000, N-{(3S)-4-[2-(3,4-dichlorophenoxy)acetamido]-3-hydroxybicyclo[2.2.2]octan-1-yl}-5-(trifluoromethyl)furan-2-carboxamide]	> 7.30
O=C(COc1ccc(Cl)c(Cl)c1)NC12CCC(NC(=O)c3coc(C(F)(F)F)n3)(CC1)C[C@@H]2O [Compound 1009, N-{(3S)-4-[2-(3,4-dichlorophenoxy)acetamido]-3-hydroxybicyclo[2.2.2]octan-1-yl}-2-(trifluoromethyl)-1,3-oxazole-4-carboxamide]	> 7.30
O=C(COc1ccc(Cl)c(F)c1)NC12CC(Nc3cc(N4CCCC4)ccn3)(C1)C2 [Compound 962, 2-(4-chloro-3-fluorophenoxy)-N-(3-{[4-(pyrrolidin-1-yl)pyridin-2-yl]amino}bicyclo[1.1.1]pentan-1-yl)acetamide]	5.70 to 6.00
O=C(COc1cc(F)c2cn[nH]c2c1)NC12CCC(NC(=O)c3cnc(C(F)F)cn3)(CC1)[C@@H](O)C2 [Compound 1080, 5-(difluoromethyl)-N-[(2S)-4-{2-[(4-fluoro-1H-indazol-6-yl)oxy]acetamido}-2-hydroxybicyclo[2.2.2]octan-1-yl]pyrazine-2-carboxamide]	6.60 to 7.30
O=C(COc1ccc(Cl)c(F)c1)NC12CC(Nc3ccnc(-n4ccnc4)c3)(C1)C2 [Compound 955, 2-(4-chloro-3-fluorophenoxy)-N-(3-{[2-(1H-imidazol-1-yl)pyridin-4-yl]amino}bicyclo[1.1.1]pentan-1-yl)acetamide]	6.00 to 6.60
O=C(COc1ccc(Cl)c(F)c1)NC12CC(NC(=O)c3ccc4c(n3)CCCC4)(C1)C2 [Compound 1093, N-{3-[2-(4-chloro-3-fluorophenoxy)acetamido]bicyclo[1.1.1]pentan-1-yl]-5,6,7,8-tetrahydroquinoline-2-carboxamide]	6.60 to 7.30
O=C(COc1ccc(Cl)c(Cl)c1)NC12CCC(NC(=O)c3ccc(C(F)(F)F)cn3)(CC1)C[C@@H]2O [Compound 1031, N-{(3S)-4-[2-(3,4-dichlorophenoxy)acetamido]-3-hydroxybicyclo[2.2.2]octan-1-yl}-5-(trifluoromethyl)pyridine-2-carboxamide]	> 7.30
O=C(COc1ccc(Cl)c(F)c1)NC12CCC(NC(=O)c3cc4cc(Cl)ccc4o3)(CC1)[C@@H](O)C2 [Compound 1109, 5-chloro-N-{(2S)-4-[2-(4-chloro-3-fluorophenoxy)acetamido]-2-hydroxybicyclo[2.2.2]octan-1-yl}-1-benzofuran-2-carboxamide]	> 7.30
CC(C)(C)OC(=O)NCc1ccnc(C(=O)NC23CCC(NC(=O)COc4ccc(Cl)c(F)c4)(CC2)CC3)c1 [Compound 978, tert-butyl {[2-({4-[2-(4-chloro-3-fluorophenoxy)acetamido]bicyclo[2.2.2]octan-1-yl}carbamoyl)pyridin-4-yl]methyl}carbamate]	< 5.70
CCOC(=O)c1cncc(NC23CC(NC(=O)COc4ccc(Cl)c(F)c4)(C2)C3)c1 [Compound 965, ethyl 5-({3-[2-(4-chloro-3-fluorophenoxy)acetamido]bicyclo[1.1.1]pentan-1-yl}amino)pyridine-3-carboxylate]	6.00 to 6.60
O=C(COc1ccc(Cl)c(F)c1)NC12CCC(NC(=O)c3ccc(OC(F)(F)F)cn3)(C1)C2 [Compound 297, N-{4-[2-(4-chloro-3-fluorophenoxy)acetamido]bicyclo[2.1.1]hexan-1-yl}-5-(trifluoromethoxy)pyridine-2-carboxamide]	> 7.30
O=C(COc1ccc(Cl)c(F)c1)NC12CCC(NC(=O)c3coc(C(F)(F)F)n3)(CC1)C[C@@H]2O [Compound 1004, N-{(3S)-4-[2-(4-chloro-3-fluorophenoxy)acetamido]-3-hydroxybicyclo[2.2.2]octan-1-yl}-2-(trifluoromethyl)-1,3-oxazole-4-carboxamide]	> 7.30
CN(C)C(=O)c1cccnc1C(=O)NC12CC(NC(=O)COc3ccc(Cl)c(F)c3)(C1)C2 [Compound 1088, N^2-{3-[2-(4-chloro-3-fluorophenoxy)acetamido]bicyclo[1.1.1]pentan-1-yl}-N^3,N^3-dimethylpyridine-2,3-dicarboxamide]	5.70 to 6.00
O=C(COc1ccc(Cl)c(Cl)c1)NC12CCC(NC(=O)c3cnc(-c4ccccc4)o3)(CC1)C[C@@H]2O [Compound 1041, N-{(3S)-4-[2-(3,4-dichlorophenoxy)acetamido]-3-hydroxybicyclo[2.2.2]octan-1-yl}-2-phenyl-1,3-oxazole-5-carboxamide]	> 7.30
COC(=O)c1ccnc(NC23CC(NC(=O)COc4ccc(Cl)c(F)c4)(C2)C3)c1 [Compound 964, methyl 2-({3-[2-(4-chloro-3-fluorophenoxy)acetamido]bicyclo[1.1.1]pentan-1-yl}amino)pyridine-4-carboxylate]	< 5.70
CCc1c(C(=O)NC23CCC(NC(=O)COc4ccc(Cl)c(F)c4)(CC2)[C@@H](O)C3)nn(C)c1-c1ccccc1 [Compound 1019, N-{(3S)-4-[2-(4-chloro-3-fluorophenoxy)acetamido]-3-hydroxybicyclo[2.2.2]octan-1-yl}-4-ethyl-1-methyl-5-phenyl-1H-pyrazole-3-carboxamide]	5.70 to 6.00
Cc1csc(C(=O)NC23CCC(NC(=O)COc4ccc(F)c(Cl)c4)(CC2)[C@@H](O)C3)n1 [Compound 1063, N-{(3S)-4-[2-(3-chloro-4-fluorophenoxy)acetamido]-3-hydroxybicyclo[2.2.2]octan-1-yl}-4-methyl-1,3-thiazole-2-carboxamide]	6.00 to 6.60
O=C(COc1ccc(Cl)c(F)c1)NC12CCC(NC(=O)c3cc(C(F)F)no3)(CC1)CC2 [Compound 983, N-{4-[2-(4-chloro-3-fluorophenoxy)acetamido]bicyclo[2.2.2]octan-1-yl}-3-(difluoromethyl)-1,2-oxazole-5-carboxamide]	6.00 to 6.60
O=C(COc1ccc(Cl)c(Cl)c1)NC12CCC(NC(=O)c3ccccn3)(CC1)C[C@@H]2O [Compound 1026, N-{(3S)-4-[2-(3,4-dichlorophenoxy)acetamido]-3-hydroxybicyclo[2.2.2]octan-1-yl}pyridine-2-carboxamide]	> 7.30
O=C(COc1ccc(Cl)c(F)c1)NC12CCC(NC(=O)c3ncc(-c4ccccc4)s3)(CC1)C[C@@H]2O [Compound 1035, N-{(3S)-4-[2-(4-chloro-3-fluorophenoxy)acetamido]-3-hydroxybicyclo[2.2.2]octan-1-yl}-5-phenyl-1,3-thiazole-2-carboxamide]	> 7.30
O=C(COc1ccc(Cl)c(F)c1)NC12CCC(NC(=O)c3ccc4c(c3)OC(F)(F)O4)(CC1)C[C@@H]2O [Compound 984, N-{(3S)-4-[2-(4-chloro-3-fluorophenoxy)acetamido]-3-hydroxybicyclo[2.2.2]octan-1-yl}-2,2-difluoro-2H-1,3-benzodioxole-5-carboxamide]	> 7.30
O=C(COc1ccc(Cl)c(F)c1)NC12CCC(NC(=O)c3csc(-c4ccccc4)n3)(CC1)C[C@@H]2O [Compound 1040, N-{(3S)-4-[2-(4-chloro-3-fluorophenoxy)acetamido]-3-hydroxybicyclo[2.2.2]octan-1-yl}-2-phenyl-1,3-thiazole-4-carboxamide]	> 7.30
Cn1nc(C(=O)NC23CCC(NC(=O)COc4ccc(Cl)c(Cl)c4)(CC2)[C@@H](O)C3)cc1C(F)(F)F [Compound 1007, N-{(3S)-4-[2-(3,4-dichlorophenoxy)acetamido]-3-hydroxybicyclo[2.2.2]octan-1-yl}-1-methyl-5-(trifluoromethyl)-1H-pyrazole-3-carboxamide]	> 7.30
O=C(COc1ccc(Cl)c(F)c1)NC12CCC(NC(=O)c3cccnc3CO)(CC1)C[C@@H]2O [Compound 1086, N-{(3S)-4-[2-(4-chloro-3-fluorophenoxy)acetamido]-3-hydroxybicyclo[2.2.2]octan-1-yl}-2-(hydroxymethyl)pyridine-3-carboxamide]	< 5.70
O=C(COc1ccc(Cl)c(F)c1)NC12CCC(NC(=O)c3cnc(C(F)F)o3)(CC1)C[C@@H]2O [Compound 1104, N-{(3S)-4-[2-(4-chloro-3-fluorophenoxy)acetamido]-3-hydroxybicyclo[2.2.2]octan-1-yl}-2-(difluoromethyl)-1,3-oxazole-5-carboxamide]	> 7.30
O=C(COc1ccc(Cl)c(F)c1)NC12CC(Nc3ccc4ncnc(N5CCOCC5)c4c3)(C1)C2 [Compound 958, 2-(4-chloro-3-fluorophenoxy)-N-(3-{[4-(morpholin-4-yl)quinazolin-6-yl]amino}bicyclo[1.1.1]pentan-1-yl)acetamide]	6.60 to 7.30
